Reference: patent US11999746B2, “Compounds” (GlaxoSmithKline Intellectual Property Development Limited, priority 2014, dated 2024)
Counter-ions that a name gives are not always drawn.

Assays:
[1] = target: T1, recombinant human Lp-PLA2 (Homo sapiens, UniProt Q13093); experiment: (1a) PED6 assay, recombinant human Lp-PLA2 (rhLp-PLA2); format: biochemical; conditions: Examples 1-167 and 413-430 were tested here, one experiment or average of multiple experiments, read-out: rhLp-PLA2 (pIC50) (converted)
T1 sequence (Q13093 22-441): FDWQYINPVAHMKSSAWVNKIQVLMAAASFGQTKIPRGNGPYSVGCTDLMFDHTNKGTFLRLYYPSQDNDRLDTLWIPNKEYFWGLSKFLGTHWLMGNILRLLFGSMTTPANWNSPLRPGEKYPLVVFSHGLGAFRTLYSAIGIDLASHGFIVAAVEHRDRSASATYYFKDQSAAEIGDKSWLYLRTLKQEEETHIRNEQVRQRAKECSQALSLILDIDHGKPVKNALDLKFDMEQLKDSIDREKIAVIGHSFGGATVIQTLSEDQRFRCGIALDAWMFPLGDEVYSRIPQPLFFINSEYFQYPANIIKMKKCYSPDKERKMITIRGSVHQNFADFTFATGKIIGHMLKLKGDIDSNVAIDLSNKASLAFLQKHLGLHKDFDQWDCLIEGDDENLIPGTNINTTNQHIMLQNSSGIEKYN
Excerpt: (1) Recombinant Human Lp-PLA2 Assays (rhLp-PLA2)
N-((6-(2,4-Dinitrophenyl)amino)-hexanoyl)-2-(4,4-difluoro-5,7-dimethyl-4-bora-3a,4a-diaza-s-indacene-3-pentanoyl)-1-hexadecanoyl-sn-glycero-3-phosphoethanolamine, triethylammonium salt (PED6) is a commercially available fluorescently-labeled phospholipid, which is commercially available from Invitrogene and Molecular Probes. There is a quenching […] and a Bodipy fluorescein (FL) group in the sn2 position. Upon cleavage with Lp-PLA2, the Bodipy FL group is liberated and then may result in an increase in fluorescence. Inhibitors of Lp-PLA2 therefore prevent this cleavage and no fluorescent increase is observed.
The PED6 assay was run as an unquenched 10 μL assay. The source plate containing the compounds to be tested was prepared by making 1:3 (by volume) serial dilution of the compounds within DMSO on 384-well microplate. Then, 0.01 μL of the compounds on compound source plate were transferred into 384 well Greiner 784076 (black) plates using ECHO liquid dispenser. 5 μL of recombinant human Lp-PLA2 enzyme (4 nM) rhLp-PLA2 in assay buffer of 50 mM HEPES, pH 7.4, 150 mM NaCl, 1 mM CHAPS) was added to each well of the plate. Plates were centrifuged for 10 sec at 500 rpm. After 30 minutes preincubation, 5 μL of substrate (4 μM PED6 [from 5 mM DMSO stock] in assay buffer of 50 mM HEPES, pH 7.4, 150 mM NaCl, 1 mM CHAPS) was added to 384 well Greiner 784076 (black) plates. Plates were centrifuged for 10 sec at 500 rpm. The plate was covered to protect it from light and incubated for 20 min at room temperature. The plates were read for fluorescence intensity at ex: 480/em: 540 using ViewLux microplate imager for Envision spectrofluroimeters. pIC50 data, curve and QC analysis was conducted by using XL fit module in Excel.

Lp-PLA2 in human plasma = target: T2, Lp-PLA2 in human plasma (Homo sapiens, UniProt Q13093); experiment: (3a) Lp-PLA2 human plasma Thio-PAF assay; format: biochemical; conditions: (3a) Thio-PAF assay, pooled human plasma; Examples 1-265 and 413-430 were tested here; read-out: pIC50 in the Lp-PLA2 human plasma assay (converted)
T2 construct: from tissue; host or cells: pooled human plasma
T2 sequence (Q13093 22-441): T1 sequence (Q13093 22-441)
Outline: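 Pooled human plasma preincubated 30 min with serially diluted compound, then given 2-thio-PAF substrate with CPM and NEM in 50 mM HEPES pH 7.4, 150 mM NaCl, 1 mM CHAPS. Reaction quenched with TFA after 2 min; CPM thiol-adduct fluorescence read at ex 380/em 485 after 40 min; pIC50 reported.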

SMILES | IC50 [1] [nM] | IC50 (Lp-PLA2 in human plasma) [nM]
O=c1nc(OCc2ccc(F)cc2)cc2n1CC1CCCCN21 (stereo not shown) [Example E1, 3-((4-Fluorobenzyl)oxy)-6,7,8,9,9a,10-hexahydro-1H-pyrido[1,2′:3,4]imidazo[1,2-c] pyrimidin-1-one trifluoroacetate salt] | ≤ 100 | ≤ 10000
O=c1nc(OCc2cc(F)c(F)c(F)c2)cc2n1CC1CCCCN21 (stereo not shown) [Example E2, 3-((3,4,5-Trifluorobenzyl)oxy)-6,7,8,9,9a,10-hexahydro-1H-pyrido[1′,2′:3,4]imidazo[1,2-c] pyrimidin-1-one] | ≤ 100 | ≤ 100
O=c1nc(OCc2cc(F)cc(F)c2)cc2n1CC1CCCCN21 (stereo not shown) [Example E3, 3-((3,5-Difluorobenzyl)oxy)-6,7,8,9,9a,10-hexahydro-1H-pyrido[1′,2′:3,4]imidazo-[1,2-c] pyrimidin-1-one] | ≤ 100 | ≤ 10000
O=c1nc(OCc2ccc(F)c(F)c2)cc2n1CC1CCCCN21 (stereo not shown) [Example E5, 3-((3,4-Difluorobenzyl)oxy)-6,7,8,9,9a,10-hexahydro-1H-pyrido[1′,2′:3,4]imidazo[1,2-c] pyrimidin-1-one] | ≤ 100 | ≤ 100
N#Cc1cccc(COc2cc3n(c(=O)n2)CC2CCCCN32)c1 (stereo not shown) [Example E6, 3-(((1-Oxo-6,7,8,9,9a,10-hexahydro-1H-pyrido[1′,2′:3,4]imidazo[1,2-c]pyrimidin-3-yl)oxy)methyl)benzonitrile] | ≤ 100 | ≤ 10000
O=c1nc(OCc2ccc(F)cc2F)cc2n1CC1CCCCN21 (stereo not shown) [Example E8, 3-((2,4-Difluorobenzyl)oxy)-6,7,8,9,9a,10-hexahydro-1H-pyrido[1′,2′:3,4]imidazo[1,2-c] pyrimidin-1-one] | ≤ 100 | ≤ 10000
N#Cc1cc(COc2cc3n(c(=O)n2)CC2CCCCN32)ccc1Oc1cncc(C(F)(F)F)c1 (stereo not shown) [Example E10, 5-(((1-Oxo-6,7,8,9,9a,10-hexahydro-1H-pyrido[1′,2′:3,4]imidazo[1,2-c]pyrimidin-3-yl)oxy)methyl)-2-((5-(trifluoromethyl)pyridin-3-yl)oxy)benzonitrile] | ≤ 1 | ≤ 100
N#Cc1cc(Oc2ccc(COc3cc4n(c(=O)n3)CC3CCCCN43)cc2F)ccc1Cl (stereo not shown) [Example E11, 2-Chloro-5-(2-fluoro-4-(((1-oxo-6,7,8,9,9a,10-hexahydro-1H-pyrido[1′,2′:3,4]imidazo[1,2-c]pyrimidin-3-yl)oxy)methyl)phenoxy)benzonitrile] | ≤ 1 | ≤ 100
N#Cc1cc(COc2cc3n(c(=O)n2)CC2CCCCN32)ccc1Oc1cccc(C(F)(F)F)c1 (stereo not shown) [Example E12, 5-(((1-Oxo-6,7,8,9,9a,10-hexahydro-1H-pyrido[1′,2′:3,4]imidazo[1,2-c]pyrimidin-3-yl)oxy)methyl)-2-(3-(trifluoromethyl)phenoxy)benzonitrile] | ≤ 1 | ≤ 100
Cc1cc(COc2cc3n(c(=O)n2)CC2CCCCN32)cc(F)c1F (stereo not shown) [Example E14, 3-((3,4-Difluoro-5-methylbenzyl)oxy)-6,7,8,9,9a,10-hexahydro-1H pyrido[1′,2′:3,4]imidazo-[1,2-c]pyrimidin-1-one] | ≤ 100 | ≤ 10000
N#Cc1cc(F)cc(COc2cc3n(c(=O)n2)CC2CCCCN32)c1 (stereo not shown) [Example E15, 3-Fluoro-5-(((1-oxo-6,7,8,9,9a,10-hexahydro-1H-pyrido[1′,2′:3,4]imidazo[1,2-c]pyrimidin-3-yl)oxy)methyl)benzonitrile] | ≤ 100 | ≤ 10000
O=c1nc(OCc2cc(F)c(F)c(Cl)c2)cc2n1CC1CCCCN21 (stereo not shown) [Example E16, 3-((3-Chloro-4,5-difluorobenzyl)oxy)-6,7,8,9,9a,10-hexahydro-1H-pyrido[1′,2′:3,4] imidazo[1,2-c]pyrimidin-1-one] | ≤ 100 | ≤ 10000
O=c1nc(OCc2ccc(Oc3ccnc(C(F)(F)F)c3)c(F)c2)cc2n1CC1CCCCN21 (stereo not shown) [Example E17, 3-((3-Fluoro-4-((2-(trifluoromethyl)pyridin-4-yl)oxy)benzyl)oxy)-6,7,8,9,9a,10-hexahydro-1H-pyrido[1′,2′:3,4]imidazo[1,2-c]pyrimidin-1-one] | ≤ 1 | ≤ 100
O=c1nc(OCc2ccc(Oc3ccc(F)c(F)c3)c(F)c2)cc2n1CC1CCCCN21 (stereo not shown) [Example E18, 3-((4-(3,4-Difluorophenoxy)-3-fluorobenzyl)oxy)-6,7,8,9,9a,10-hexahydro-1H-pyrido[1′,2′:3,4]imidazo[1,2-c]pyrimidin-1-one] | ≤ 100 | ≤ 10000
N#Cc1cc(COc2cc3n(c(=O)n2)CC2CCCCN32)ccc1Oc1ccc(F)c(F)c1 (stereo not shown) [Example E19, 2-(3,4-Difluorophenoxy)-5-(((1-oxo-6,7,8,9,9a,10-hexahydro-1H-pyrido[1′,2′:3,4]imidazo-[1,2-c]pyrimidin-3-yl)oxy)methyl)benzonitrile] | ≤ 1 | ≤ 100
N#Cc1ccc(Oc2ccc(COc3cc4n(c(=O)n3)CC3CCCCN43)cc2C#N)cc1Cl (stereo not shown) [Example E20, 2-Chloro-4-(2-cyano-4-(((1-oxo-6,7,8,9,9a,10-hexahydro-1H-pyrido[1′,2′:3,4]imidazo[1,2-c]pyrimidin-3-yl)oxy)methyl)phenoxy)benzonitrile] | ≤ 1 | ≤ 100
O=c1nc(OCc2cc(F)c(Oc3cncc(C(F)(F)F)c3)c(F)c2)cc2n1CC1CCCCN21 (stereo not shown) [Example E21, 3-((3,5-Difluoro-4-((5-(trifluoromethyl)pyridin-3-yl)oxy)benzyl)oxy)-6,7,8,9,9a,10-hexahydro-1H-pyrido[1′,2′:3,4]imidazo[1,2-c]pyrimidin-1-one] | ≤ 1 | ≤ 100
O=c1nc(OCc2ccc(Oc3ccc(C(F)(F)F)nc3)c(F)c2)cc2n1CC1CCCCN21 (stereo not shown) [Example E22, 3-((3-Fluoro-4-((6-(trifluoromethyl)pyridin-3-yl)oxy)benzyl)oxy)-6,7,8,9,9a,10-hexahydro-1H-pyrido[1′,2′:3,4]imidazo[1,2-c]pyrimidin-1-one] | ≤ 1 | ≤ 10000
N#Cc1cc(COc2cc3n(c(=O)n2)CC2CCCCN32)ccc1Oc1ccc(C(F)(F)F)cc1 (stereo not shown) [Example E23, 5-(((1-Oxo-6,7,8,9,9a,10-hexahydro-1H-pyrido[1′,2′:3,4]imidazo[1,2-c]pyrimidin-3-yl)oxy)methyl)-2-(4-(trifluoromethyl)phenoxy)benzonitrile] | ≤ 1 | ≤ 100
N#Cc1cc(COc2cc3n(c(=O)n2)CC2CCCCN32)ccc1Oc1ccc(Cl)c(F)c1 (stereo not shown) [Example E24, 2-(4-Chloro-3-fluorophenoxy)-5-(((1-oxo-6,7,8,9,9a,10-hexahydro-1H pyrido-[1′,2′:3,4]imidazo[1,2-c]pyrimidin-3-yl)oxy)methyl)benzonitrile] | ≤ 1 | ≤ 100
O=c1nc(OCc2cc(F)c(Oc3ccc(C(F)(F)F)nc3)c(F)c2)cc2n1CC1CCCCN21 (stereo not shown) [Example E25, 3-((3,5-Difluoro-4-((6-(trifluoromethyl)pyridin-3-yl)oxy)benzyl)oxy)-6,7,8,9,9a,10-hexahydro-1H-pyrido[1′,2′:3,4]imidazo[1,2-c]pyrimidin-1-one] | ≤ 1 | ≤ 100
O=c1nc(OCc2cc(F)c(Oc3ccnc(Cl)c3)c(F)c2)cc2n1CC1CCCCN21 (stereo not shown) [Example E26, 3-((4-((2-Chloropyridin-4-yl)oxy)-3,5-difluorobenzyl)oxy)-6,7,8,9,9a,10-hexahydro-1H-pyrido[1,2′:3,4]imidazo[1,2-c]pyrimidin-1-one] | ≤ 1 | ≤ 100
O=c1nc(OCc2ccc(F)c(Cl)c2)cc2n1CC1CCCCN21 (stereo not shown) [Example E27, 3-((3-Chloro-4-fluorobenzyl)oxy)-6,7,8,9,9a,10-hexahydro-1H-pyrido[1′,2′:3,4]imidazo[1,2 c]pyrimidin-1-one] | ≤ 100 | ≤ 10000
